87 compounds from PubChem BioAssay AID2305 (GlaxoSmithKline (GSK), 2010) can be followed below.

Where “and” joins values, the source holds several entries; their conditions need not be identical. Identical values can stand only once.

The experiment concerns P. falciparum 3D7 growth, pLDH absorbance. Put plainly: P. falciparum 3D7 growth inhibition, dose response, strain 3D7 (AID 2305).

As for `FC(F)(F)Oc1ccc(-c2cnc3ccc(NCc4ccncc4)nn23)cc1`, the IC50 (usually the point on the concentration scale where inhibition reaches its midpoint) amounted to 870 nM.
In turn, `CC(C)c1cc(C(=O)N[C@@H](Cc2ccccc2)[C@H](O)CNC2CCCCC2)cc(N2CCCC2=O)c1` returned an IC50 of 120 nM.
`Cc1cc(N2CCCC2)nc(Nc2ccc(NC(=O)Nc3ccccc3)cc2)n1` came in with an IC50 of 160 nM.
Under `COc1ccc(NC(=O)C2c3ccccc3C(=O)N(C3CCCC3)C2c2cccs2)cc1OC` (configuration not stated) stands 1090 nM; under `Cc1ccc2c(NN=CC=Cc3ccccc3)cc(C)nc2c1`, 1120 nM.
`Cc1ccc(-n2cc(CNCC3CCN(CCO)CC3)c(-c3ccc(F)cc3)n2)cc1`: the IC50 came to 2000 nM.
Take `Cc1ccc(Sc2ccc(NC(=O)CN3CCN(C(=O)c4ccco4)CC3)cc2)cc1C`: the IC50 was found to be 910 nM.
Under `CC(C)NC(C)(C)CN(Cc1ccc(-c2ccc(C(F)(F)F)cc2)cc1)C(=O)Cn1c(CCc2cccc(F)c2F)nc(=O)c2ccccc21` stands 910 nM; under `COC(=O)c1ccc(C[C@@H](C)NC[C@H](O)c2cccc(C(F)(F)F)c2)cc1`, 790 nM and 760 nM.
Take `O=C(/C=C/c1ccc(Cl)c(Cl)c1)N1CCC(CN2CCC(c3c[nH]c4cc5c(cc34)OCO5)CC2)CC1`: the IC50 was found to be 680 nM.
As for `OC1(c2ccc(Br)cc2)CCN(C2CCN(Cc3ccccc3)CC2)CC1`, the IC50 came to 600 nM.
In turn, `COC(=O)c1ccc(CC(C)NCC(O)c2cccc(C(F)(F)F)c2)c(Cl)c1` (configuration not stated) had an IC50 of 850 nM.
In turn, `CN1Cc2cc(NC(=O)/C=C/c3ccccc3Cl)ccc2C(C)(C)C1` had a half-maximal inhibitory concentration (IC50) of 640 nM.
With `Cc1cccc2[nH]c(-c3ccc(-c4cccc(CN5CCC(N)C5)c4)s3)nc12` (configuration not stated), the IC50 is 770 nM.
Under `Nc1cc(-c2ccc3ccccc3c2)nc2ccccc12` stands 700 nM.
Under `O=C(c1ccc(Cl)cc1)C1CCCN(C2CCN(CCc3ccccc3)CC2)C1` (configuration not stated) stands 1450 nM; under `Cc1ccc(OCCCCONC(=O)c2ccccc2)cc1`, 150 nM.
With `CC(=O)Nc1cc(C(=O)Nc2cccc(-c3cccc(-c4nc5ccc(C(F)(F)F)cc5[nH]4)c3)c2)ccc1C`, the concentration for half-maximal inhibition (IC50) is 220 nM.
Under `Cc1nnc(-c2ccc3ccccc3c2)c2cn(-c3cccc([N+](=O)[O-])c3)nc12` stands 990 nM; under `Cc1cccc(C(=O)Nc2ccnc(N(C)CCCN(C)Cc3cccc(C#N)c3)c2)c1`, 1320 nM.
The value for `NCCNc1ccc([N+](=O)[O-])cc1C(=O)Nc1cccc(Cl)c1` was 1260 nM; that for `CC(NC(=O)NC1CCC(CCN2CCCc3ccccc32)CC1)c1cccc2ccccc12` (configuration not stated) was 1020 nM; that for `CCCN(C(=O)c1ccccc1C)c1nnc(-c2ccccc2C)s1` was 1110 nM.
The compound `N#Cc1ccc(NC(=Nc2ccccc2Br)N(C2CCCCC2)C2CCCCC2)c(O)c1` registered an IC50 of 780 nM.
For the compound `COc1ccc(-c2ccc(CNC3Cc4ccccc4C3)cc2)cc1S(=O)(=O)NCCN1CCCC1`, the 50% inhibitory concentration (IC50) was 800 nM.
Under `COc1ccccc1C(=O)Nc1cccc(N2CCC(NCc3ccc(-n4cccn4)cc3)CC2)c1` stands 1190 nM; under `C[C@H](Cc1ccc(OCCCCCCOc2ccc(C[C@@H](C)NC[C@H](O)c3cccc(Cl)c3)cc2)cc1)NC[C@H](O)c1cccc(Cl)c1`, 300 nM.
Under `CCC[C@@H]([C@@H](CC1CCCCC1)C(=O)N[C@H](C(=O)Nc1nccs1)C(C)(C)SCCNC(=O)OCC)N(O)C=O` stands 80 nM.
`O=[N+]([O-])c1cccc(CNCC2CCC(CNCc3cccc([N+](=O)[O-])c3)CC2)c1` (configuration not stated) came in with an IC50 of 140 nM.
Under `O=C(NC1CCCCC1)N(Cc1ccc(-c2cccc(CNCc3ccc4c(c3)OCO4)c2)cc1)C1CCN(Cc2ccccc2)CC1` stands 690 nM; under `Cc1nc(N)nc(N)c1-c1cc(Cl)c(Cl)c(Cl)c1`, 830 nM; under `C[C@@H](NCCc1cccc(Cl)c1)[C@@H](O)c1ccc(OCCCCCCOc2ccc([C@H](O)[C@@H](C)NCCc3cccc(Cl)c3)cc2)cc1`, 400 nM.
Under `Cc1cccn2c(=O)c3cc(C(=O)NCCc4ccccc4)c(=N)n(CCCOC(C)C)c3nc12` stands 480 nM; under `N=C(N)c1ccc(NC(=O)c2cc(Sc3ccc(O)c(C(=O)Nc4ccc(C(=N)N)cc4)c3)ccc2O)cc1`, 120 nM; under `CCOC(=O)c1ccc(NC(=O)Nc2cccc(-c3cccc(-c4nc5ccc(F)cc5[nH]4)c3)c2)cc1`, 90 nM.
The value for `CC(C)c1cc2c(ccc3nc(N)nc(N)c32)[nH]1` was 40 nM.
Compound `CCCCc1ccc2nc(NC(=O)OC)[nH]c2c1` registered a half-inhibitory concentration (IC50) of 680 nM.
Under `Cc1[nH]c(C)c(-c2ccc(-c3ccccc3F)nc2)c(=O)c1Cl` stands 250 nM.
In turn, `COc1ccc(C(=O)Nc2ccc3nc(N4CCCCC4)cc(C)c3c2)cc1[N+](=O)[O-]` showed an IC50 of 780 nM.
For `COc1ccc2nccc(N(C)CC3(O)CCC(NCc4cc5c(cn4)OCCO5)CC3)c2n1` (configuration not stated), the IC50 stood at 680 nM.
The value for `CC(C)Nc1nc(NC2CCCCC2)nc(N2CCCCCCC2)n1` was 1090 nM.
On to `O=S(=O)(c1c(Cl)cc(Cl)cc1Cl)N1CCCCC(c2ccc(Cl)cc2)=N1`, for which the IC50 was determined as 400 nM.
In the case of `N=C1SC(=Cc2cn[nH]c2-c2ccc(F)cc2)C(=O)N1c1nccs1`, the concentration for half-maximal inhibition (IC50) worked out at 220 nM.
The value for `CCN1CCN(c2cc(C)c3cc(NC(=O)c4cncc(Br)c4)ccc3n2)CC1` was 660 nM; that for `O=C1Nc2cccc3c2C1(CCCN1CCC(c2c[nH]c4cc(C(F)(F)F)ccc24)CC1)CCC3` (configuration not stated) was 960 nM; that for `Cc1ccc(NC(=O)c2ccc(N3CCC(c4ccccc4C)CC3)nc2)cc1` was 1400 nM.
The value for `COC(=O)c1ccc(CC(C)NCC(O)c2cccc3ccccc23)cc1` (configuration not stated) was 940 nM; that for `Cc1[nH]c2ccccc2c1C(=O)C(C)Sc1nnc(-c2ccccc2F)o1` (configuration not stated) was 690 nM.
Under `Clc1ccc2c(NCc3ccccn3)ccnc2c1` stands 660 nM; under `CCCCCCCN(Cc1ccc(OC(C)(C)C(=O)OCC)cc1)C(=O)Nc1ccccc1OC(F)(F)F`, 970 nM; under `CC(C)(C)C(=O)Nc1c(-c2cc(=O)oc3cc4c(cc23)CCC4)oc2ccccc12`, 1260 nM.
With `O=C(CC1SC(N2N=C(c3cccs3)CC2c2ccccc2)=NC1=O)Nc1ccc(Cl)cc1` (configuration not stated), the IC50 was 1680 nM.
`Cc1cccc2[nH]c(-c3cccc(-c4ccc(NC(=O)C(C)CN5CCOCC5)cc4)c3)nc12` (configuration not stated) gave an IC50 of 690 nM.
For the compound `CCc1ccc(C2CCN(CCCCNC(=O)c3ccc(NC(=O)c4ccc(Cl)cc4)cc3)CC2)cc1`, the 50% inhibitory concentration (IC50) turned out to be 650 nM.
`CN1C(=O)C(=O)N(CCCCCON=C(N)N)C1=S` came in with an IC50 of 200 nM.
Regarding `CC(C)(C(=O)Nc1ccc(C2CCC(NCC3CC3)CC2)c(Cl)c1)c1cccc(OC(F)F)c1` (configuration not stated), the IC50 worked out at 970 nM.
Under `CCC(C)(C)c1ccc(Oc2ccc(NC(=O)Nc3ccc(Cl)c(Cl)c3)cc2)cc1` stands 700 nM; under `COc1cc2c(cc1C(F)(F)F)N(C(=O)Nc1cc(F)cc(-c3cccnn3)c1)CC2`, 270 nM; under `O=S(=O)(Nc1ccc(CCN2CCCCC2CCN2CCCC2)cc1)c1cccc2cccnc12` (configuration not stated), 1300 nM.
In turn, `COc1ccc(Oc2ccc(-c3c(C)[nH]c(C)c(Cl)c3=O)cc2)cc1` had an IC50 of 140 nM.
The compound `CCc1ccc(NC(=O)c2ccc(CN3CCCN(Cc4cccc(O)c4)CC3)cc2)cc1` yielded an IC50 of 670 nM.
Under `COc1ccc2c(OC)cccc2c1CNCCCCCCNCc1c(OC)ccc2c(OC)cccc12` stands 690 nM; under `O=C(Nc1ccccc1)N(Cc1cccc(-c2ccc(CNCCc3ccccc3)cc2)c1)C1CCN(Cc2ccccc2)CC1`, 350 nM; under `CC(C)C(=O)NC(c1ccc(Cl)cc1)c1ccc2cccnc2c1O` (configuration not stated), 870 nM.
Under `CNc1nc(NN=Cc2cc3c(cc2[N+](=O)[O-])OCO3)nc(Nc2cccc(C(F)(F)F)c2)n1` stands 770 nM; under `O=C(/C=C/c1ccc(Cl)c(Cl)c1)NC1CCC(CN2CCC(c3nc4ccccc4s3)CC2)CC1` (configuration not stated), 1020 nM.
The value for `CCOc1cc(Cc2cnc(N)nc2N)cc(OCC)c1-n1cccc1` was 760 nM; that for `COc1ccc2nc3cc(Cl)ccc3c(Nc3ccc(O)c(CN4CC5CCC(CC5)C4)c3)c2c1` was 170 nM.
On to `O=C(/C=C/c1ccc(Cl)c(Cl)c1)NCCCCCN1CCC(NC(=O)Nc2ccc3c(c2)OCO3)CC1`, for which the 50% inhibitory concentration (IC50) was found to be 710 nM.
With `COc1ccc(C(=C(C)CC(C)C(=O)O)c2ccccc2)cc1` (configuration not stated), the IC50 turned out to be 840 nM.
The value for `CCN1CCN(Cc2ccc3nc(-c4cc(C)n(Cc5cc(Cl)ccc5OCc5ccccc5)n4)[nH]c3c2)CC1` was 770 nM.
Turning to `CCOc1c(OC)ccc2c1CCN(CCN1CCC(NC(=O)c3ccc(-c4cccc(C(F)(F)F)c4C(F)(F)F)cc3)CC1)C2`, the IC50 is 730 nM.
Under `Fc1ccc2nc(-c3ccc(-c4ccc(CN5CCCCC5)cc4)s3)[nH]c2c1` stands 600 nM; under `CC(CN(C)C)C(=O)Nc1ccc(-c2csc(-c3nc4ccccc4[nH]3)c2)cc1` (configuration not stated), 1320 nM.
`Fc1ccc2ncc(Cl)c(CCN3CCC(NCc4cc5c(cn4)OCCO5)CC3)c2c1` showed an IC50 of 880 nM.
Consider `C=CCN(C(=O)c1ccc(Cl)c([N+](=O)[O-])c1)c1nc(-c2ccccc2)cs1`, for which the IC50 was 400 nM.
The compound `O=C1OC2(CN1CC1CCN(Cc3ccc(O)c(Cl)c3)CC1)c1ccccc1-c1ccccc12` had a half-inhibitory concentration (IC50) of 760 nM.
The value for `CCCCNc1c(C(=O)OCC)c(C)nc2c1[nH]c1ccccc12` was 680 nM; that for `O=C(/C=C/c1ccc(Cl)c(Cl)c1)NCCCCCN1CCCN(C(=S)Nc2ccc(Cl)c(Cl)c2)CC1` was 870 nM.
The value for `COc1ccc(C2C(C(=O)Nc3ccc(C)c(F)c3)c3cc(OC)c(OC)cc3C(=O)N2C)cc1` (configuration not stated) was 960 nM; that for `CCCCCCN1CCCN(Cc2cccc(C(=O)Nc3ccc(C(C)(C)C)cc3)c2)CC1` was 940 nM; that for `Fc1ccc2nc(-c3ccc(-c4ccc(CNCCc5cccnc5)cc4)s3)[nH]c2c1` was 240 nM.
`COc1ccc(C(=O)[C@H]2C[C@@H]2CN2CC=C(c3c[nH]c4cccc(Br)c34)CC2)cc1`: the IC50 worked out at 930 nM.
As to `O=C(NCCNc1ccnc(Nc2ccc(F)cc2)n1)Nc1ccc2c(c1)OCO2`, the IC50 turned out to be 680 nM.
Compound `CC(C)(CN)c1cc(-c2ccc(Cl)c(O)c2)c(-c2ccncc2)o1` yielded an IC50 of 1140 nM.
The compound `Cc1cnc(NC(=O)c2cn(-c3ccccc3)nc2-c2cccs2)s1` yielded an IC50 of 950 nM.
`O=C(Nc1ccncc1)c1cc(C(=O)Nc2ccncc2)cc([N+](=O)[O-])c1` yielded a concentration for half-maximal inhibition (IC50) of 610 nM.
